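GI50 = concentration required for 50% inhibition of growth. TGI is the concentration that stops growth completely.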
How the values were obtained:
Assay in all cases: DTP human tumour cell line panel, 384-well format
DU-145 prostate = system: DU-145 prostate
OVCAR-4 ovarian = system: OVCAR-4 ovarian
PC-3 prostate = system: PC-3 prostate
U251 glioblastoma = system: U251 glioblastoma
NCI-H460 NSCLC = system: NCI-H460 NSCLC
SR leukemia = system: SR leukemia
HT29 colon = system: HT29 colon
MOLT-4 leukemia = system: MOLT-4 leukemia
T-47D breast = system: T-47D breast
OVCAR-3 ovarian = system: OVCAR-3 ovarian
NCI-H226 lung = system: NCI-H226 lung
NCI-H23 lung = system: NCI-H23 lung
UO-31 renal = system: UO-31 renal
SF-268 CNS = system: SF-268 CNS
COLO 205 colon = system: COLO 205 colon
BT-549 breast = system: BT-549 breast
UACC-62 melanoma = system: UACC-62 melanoma
K-562 leukemia = system: K-562 leukemia
CAKI-1 renal = system: CAKI-1 renal
HL-60(TB) leukemia = system: HL-60(TB) leukemia
A498 renal = system: A498 renal
SNB-19 CNS = system: SNB-19 CNS
786-0 renal = system: 786-0 renal
OVCAR-5 ovarian = system: OVCAR-5 ovarian
HS 578T breast = system: HS 578T breast
UACC-257 melanoma = system: UACC-257 melanoma
HOP-92 NSCLC = system: HOP-92 NSCLC
HCT-116 colon = system: HCT-116 colon
SK-MEL-5 melanoma = system: SK-MEL-5 melanoma
SF-539 CNS = system: SF-539 CNS
HCT-15 colon = system: HCT-15 colon
KM12 colon = system: KM12 colon
MDA-MB-435 melanoma = system: MDA-MB-435 melanoma
MDA-MB-231 breast = system: MDA-MB-231 breast
RXF 393 renal = system: RXF 393 renal
SW-620 colon = system: SW-620 colon
MDA-MB-468 breast = system: MDA-MB-468 breast
NCI-H322M lung = system: NCI-H322M lung
SNB-75 CNS = system: SNB-75 CNS
M14 melanoma = system: M14 melanoma
SF-295 CNS = system: SF-295 CNS
HOP-62 NSCLC = system: HOP-62 NSCLC
ACHN renal = system: ACHN renal
SK-MEL-2 melanoma = system: SK-MEL-2 melanoma
MALME-3M melanoma = system: MALME-3M melanoma
TK-10 renal = system: TK-10 renal
A549 NSCLC = system: A549 NSCLC
MCF7 breast = system: MCF7 breast
EKVX NSCLC = system: EKVX NSCLC
NCI-H522 lung = system: NCI-H522 lung
SN12C renal = system: SN12C renal
OVCAR-8 ovarian = system: OVCAR-8 ovarian
IGROV1 ovarian = system: IGROV1 ovarian
SK-MEL-28 melanoma = system: SK-MEL-28 melanoma

COc1cc(C(=O)O)ccc1NC(=O)[C@@H]1N[C@@H](CC(C)(C)C)[C@](C#N)(c2ccc(Cl)cc2F)[C@H]1c1cccc(Cl)c1F
GI50 (DU-145 prostate): 5.75 µM
TGI (DU-145 prostate): 17.5 µM
GI50 (OVCAR-4 ovarian): 5.83 µM
TGI (OVCAR-4 ovarian): 18.3 µM
GI50 (PC-3 prostate): 4.32 µM
TGI (PC-3 prostate): 14.2 µM
GI50 (U251 glioblastoma): 3.68 µM
GI50 (NCI-H460 NSCLC): 4.31 µM
TGI (NCI-H460 NSCLC): 14.5 µM
GI50 (SR leukemia): < 0.01 µM
TGI (SR leukemia): 0.0122 µM
GI50 (HT29 colon): 4.23 µM
TGI (HT29 colon): 13.1 µM
GI50 (MOLT-4 leukemia): < 0.01 µM
TGI (MOLT-4 leukemia): 0.0195 µM
GI50 (T-47D breast): 3.16 µM
GI50 (OVCAR-3 ovarian): 2.35 µM
TGI (OVCAR-3 ovarian): 5.27 µM
GI50 (NCI-H226 lung): 0.0202 µM
TGI (NCI-H226 lung): 0.128 µM
GI50 (NCI-H23 lung): 4.77 µM
GI50 (UO-31 renal): 0.0758 µM
TGI (UO-31 renal): 0.464 µM
GI50 (SF-268 CNS): 3.87 µM
TGI (SF-268 CNS): 12.5 µM
GI50 (COLO 205 colon): 5.06 µM
TGI (COLO 205 colon): 18.1 µM
GI50 (BT-549 breast): 3.03 µM
TGI (BT-549 breast): 6.21 µM
GI50 (UACC-62 melanoma): < 0.01 µM
TGI (UACC-62 melanoma): 1.44 µM
GI50 (K-562 leukemia): 4.19 µM
TGI (K-562 leukemia): 13.9 µM
GI50 (CAKI-1 renal): 0.0193 µM
TGI (CAKI-1 renal): 13.7 µM
GI50 (HL-60(TB) leukemia): 2.07 µM
TGI (HL-60(TB) leukemia): 3.51 µM
GI50 (A498 renal): 0.0406 µM
TGI (A498 renal): 4.26 µM
GI50 (SNB-19 CNS): 4.3 µM
TGI (SNB-19 CNS): 14.1 µM
GI50 ([…]-0 renal): 3.54 µM
TGI (786-0 renal): 13.7 µM
GI50 (OVCAR-5 ovarian): 8.12 µM
TGI (OVCAR-5 ovarian): 20.2 µM
GI50 (HS 578T breast): 3.75 µM
TGI (HS 578T breast): 11.9 µM
GI50 (UACC-257 melanoma): 0.228 µM
TGI (UACC-257 melanoma): 0.657 µM
GI50 (HOP-92 NSCLC): 1.94 µM
TGI (HOP-92 NSCLC): 4.35 µM
GI50 (HCT-116 colon): 0.0526 µM
TGI (HCT-116 colon): 1.85 µM
GI50 (SK-MEL-5 melanoma): 1.15 µM
TGI (SK-MEL-5 melanoma): 2.44 µM
GI50 (SF-539 CNS): 3.09 µM
TGI (SF-539 CNS): 11.6 µM
GI50 (HCT-15 colon): 3.51 µM
GI50 (KM12 colon): 0.0634 µM
TGI (KM12 colon): 1.38 µM
GI50 (MDA-MB-435 melanoma): 3.71 µM
TGI (MDA-MB-435 melanoma): 12.2 µM
GI50 (MDA-MB-231 breast): 3.48 µM
TGI (MDA-MB-231 breast): 12 µM
GI50 (RXF 393 renal): 2.59 µM
TGI (RXF 393 renal): 5.85 µM
GI50 (SW-620 colon): 4.53 µM
TGI (SW-620 colon): 14.2 µM
GI50 (MDA-MB-468 breast): 3.79 µM
GI50 (NCI-H322M lung): 10.3 µM
TGI (NCI-H322M lung): 22 µM
GI50 (SNB-75 CNS): 6.6 µM
TGI (SNB-75 CNS): 18.7 µM
GI50 (M14 melanoma): 1.98 µM
TGI (M14 melanoma): 11.2 µM
GI50 (SF-295 CNS): 3.77 µM
GI50 (HOP-62 NSCLC): 8.06 µM
GI50 (ACHN renal): 0.03 µM
TGI (ACHN renal): 1.49 µM
GI50 (SK-MEL-2 melanoma): 2.69 µM
TGI (SK-MEL-2 melanoma): 6.28 µM
GI50 (MALME-3M melanoma): 0.0869 µM
TGI (MALME-3M melanoma): 11.9 µM
GI50 (TK-10 renal): 5.05 µM
TGI (TK-10 renal): 16.6 µM
GI50 (A549 NSCLC): 0.195 µM
TGI (A549 NSCLC): 4.76 µM
GI50 (MCF7 breast): 0.0339 µM
TGI (MCF7 breast): 1.04 µM
GI50 (EKVX NSCLC): 5.88 µM
GI50 (NCI-H522 lung): 3.74 µM
TGI (NCI-H522 lung): 10.9 µM
GI50 (SN12C renal): 4.7 µM
TGI (SN12C renal): 15.9 µM
GI50 (OVCAR-8 ovarian): 4.65 µM
GI50 (IGROV1 ovarian): 2.63 µM
TGI (IGROV1 ovarian): 13.8 µM
GI50 (SK-MEL-28 melanoma): 2.73 µM
TGI (SK-MEL-28 melanoma): 6.12 µM

Source: PubChem BioAssay (NCI)
